Assay results from PubChem BioAssay (NCI).
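GI50 marks 50% less growth. TGI: total growth inhibition.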

Legend:
Assay in all cases: DTP human tumour cell line panel, 384-well format
CCRF-CEM leukemia = test system: CCRF-CEM leukemia
OVCAR-5 ovarian = test system: OVCAR-5 ovarian
NCI-H522 lung = test system: NCI-H522 lung
SF-295 CNS = test system: SF-295 CNS
HOP-62 NSCLC = test system: HOP-62 NSCLC
786-0 renal = test system: 786-0 renal
TK-10 renal = test system: TK-10 renal
MDA-MB-231 breast = test system: MDA-MB-231 breast
U251 glioblastoma = test system: U251 glioblastoma
NCI-H23 lung = test system: NCI-H23 lung
HL-60(TB) leukemia = test system: HL-60(TB) leukemia
M14 melanoma = test system: M14 melanoma
A549 NSCLC = test system: A549 NSCLC
HCT-15 colon = test system: HCT-15 colon
MCF7 breast = test system: MCF7 breast
LOX IMVI melanoma = test system: LOX IMVI melanoma
NCI-H322M lung = test system: NCI-H322M lung
ACHN renal = test system: ACHN renal
SK-OV-3 ovarian = test system: SK-OV-3 ovarian
IGROV1 ovarian = test system: IGROV1 ovarian
OVCAR-3 ovarian = test system: OVCAR-3 ovarian
SK-MEL-28 melanoma = test system: SK-MEL-28 melanoma
OVCAR-4 ovarian = test system: OVCAR-4 ovarian
DU-145 prostate = test system: DU-145 prostate
A498 renal = test system: A498 renal
BT-549 breast = test system: BT-549 breast
SN12C renal = test system: SN12C renal
SNB-75 CNS = test system: SNB-75 CNS
UACC-257 melanoma = test system: UACC-257 melanoma
NCI/ADR-RES ovarian = test system: NCI/ADR-RES ovarian
OVCAR-8 ovarian = test system: OVCAR-8 ovarian
UACC-62 melanoma = test system: UACC-62 melanoma
CAKI-1 renal = test system: CAKI-1 renal
UO-31 renal = test system: UO-31 renal
MOLT-4 leukemia = test system: MOLT-4 leukemia
NCI-H226 lung = test system: NCI-H226 lung
RPMI-8226 leukemia = test system: RPMI-8226 leukemia
COLO 205 colon = test system: COLO 205 colon
T-47D breast = test system: T-47D breast
SW-620 colon = test system: SW-620 colon
MALME-3M melanoma = test system: MALME-3M melanoma
SNB-19 CNS = test system: SNB-19 CNS
PC-3 prostate = test system: PC-3 prostate
SF-539 CNS = test system: SF-539 CNS
SK-MEL-5 melanoma = test system: SK-MEL-5 melanoma
SF-268 CNS = test system: SF-268 CNS
MDA-MB-435 melanoma = test system: MDA-MB-435 melanoma
HS 578T breast = test system: HS 578T breast
MDA-MB-468 breast = test system: MDA-MB-468 breast
SR leukemia = test system: SR leukemia
HCT-116 colon = test system: HCT-116 colon
HT29 colon = test system: HT29 colon
EKVX NSCLC = test system: EKVX NSCLC
RXF 393 renal = test system: RXF 393 renal
NCI-H460 NSCLC = test system: NCI-H460 NSCLC
KM12 colon = test system: KM12 colon
HOP-92 NSCLC = test system: HOP-92 NSCLC

SMILES: COc1cc(N2CCC(N3CCN(C)CC3)CC2)ccc1Nc1ncc(Cl)c(Nc2ccccc2P(C)(C)=O)n1
- GI50 (CCRF-CEM leukemia): 3.45 µM
- TGI (CCRF-CEM leukemia): 9.7 µM
- GI50 (OVCAR-5 ovarian): 2.39 µM
- TGI (OVCAR-5 ovarian): > 46.9 µM
- GI50 (NCI-H522 lung): 1.16 µM
- TGI (NCI-H522 lung): 4.17 µM
- GI50 (SF-295 CNS): 2.92 µM
- TGI (SF-295 CNS): > 29.5 µM
- GI50 (HOP-62 NSCLC): 2.33 µM
- TGI (HOP-62 NSCLC): > 50.2 µM
- GI50 (786-0 renal): 3.22 µM
- TGI (786-0 renal): > 43.8 µM
- GI50 (TK-10 renal): 3.92 µM
- TGI (TK-10 renal): > 100 µM
- GI50 (MDA-MB-231 breast): 2.03 µM
- TGI (MDA-MB-231 breast): 6.47 µM
- GI50 (U251 glioblastoma): 6.2 µM
- TGI (U251 glioblastoma): > 100 µM
- GI50 (NCI-H23 lung): 1.87 µM
- TGI (NCI-H23 lung): 5.19 µM
- GI50 (HL-60(TB) leukemia): 3.35 µM
- TGI (HL-60(TB) leukemia): > 35.6 µM
- GI50 (M14 melanoma): 3.48 µM
- TGI (M14 melanoma): > 100 µM
- GI50 (A549 NSCLC): 2.1 µM
- TGI (A549 NSCLC): > 23.4 µM
- GI50 (HCT-15 colon): 5.29 µM
- TGI (HCT-15 colon): > 100 µM
- GI50 (MCF7 breast): 2.07 µM
- TGI (MCF7 breast): > 100 µM
- GI50 (LOX IMVI melanoma): 3.07 µM
- TGI (LOX IMVI melanoma): 17.8 µM
- GI50 (NCI-H322M lung): 2.08 µM
- TGI (NCI-H322M lung): 6.39 µM
- GI50 (ACHN renal): 3.21 µM
- TGI (ACHN renal): > 43.9 µM
- GI50 (SK-OV-3 ovarian): 2.45 µM
- TGI (SK-OV-3 ovarian): 5.89 µM
- GI50 (IGROV1 ovarian): 1.18 µM
- TGI (IGROV1 ovarian): 3.7 µM
- GI50 (OVCAR-3 ovarian): 2.22 µM
- TGI (OVCAR-3 ovarian): > 28.5 µM
- GI50 (SK-MEL-28 melanoma): > 100 µM
- TGI (SK-MEL-28 melanoma): > 100 µM
- GI50 (OVCAR-4 ovarian): 2.41 µM
- TGI (OVCAR-4 ovarian): 8.64 µM
- GI50 (DU-145 prostate): 2.5 µM
- TGI (DU-145 prostate): 10.5 µM
- GI50 (A498 renal): 2.32 µM
- TGI (A498 renal): 6.1 µM
- GI50 (BT-549 breast): 2.28 µM
- TGI (BT-549 breast): 5.08 µM
- GI50 (SN12C renal): 2.3 µM
- TGI (SN12C renal): 11.1 µM
- GI50 (SNB-75 CNS): 2.75 µM
- TGI (SNB-75 CNS): 6.73 µM
- GI50 (UACC-257 melanoma): > 100 µM
- TGI (UACC-257 melanoma): > 100 µM
- GI50 (NCI/ADR-RES ovarian): > 100 µM
- TGI (NCI/ADR-RES ovarian): > 100 µM
- GI50 (OVCAR-8 ovarian): 6.55 µM
- TGI (OVCAR-8 ovarian): > 100 µM
- GI50 (UACC-62 melanoma): 3.5 µM
- TGI (UACC-62 melanoma): > 100 µM
- GI50 (CAKI-1 renal): 2.38 µM
- TGI (CAKI-1 renal): 6.28 µM
- GI50 (UO-31 renal): 4.2 µM
- TGI (UO-31 renal): > 62 µM
- GI50 (MOLT-4 leukemia): 1.9 µM
- TGI (MOLT-4 leukemia): 4.1 µM
- GI50 (NCI-H226 lung): 0.49 µM
- TGI (NCI-H226 lung): 2.53 µM
- GI50 (RPMI-8226 leukemia): 1.77 µM
- TGI (RPMI-8226 leukemia): 5.38 µM
- GI50 (COLO 205 colon): 1.65 µM
- TGI (COLO 205 colon): 4 µM
- GI50 (T-47D breast): > 25.8 µM
- TGI (T-47D breast): > 100 µM
- GI50 (SW-620 colon): 4.95 µM
- TGI (SW-620 colon): > 100 µM
- GI50 (MALME-3M melanoma): 3.09 µM
- TGI (MALME-3M melanoma): > 66.9 µM
- GI50 (SNB-19 CNS): 5.97 µM
- TGI (SNB-19 CNS): > 100 µM
- GI50 (PC-3 prostate): 5.55 µM
- TGI (PC-3 prostate): > 100 µM
- GI50 (SF-539 CNS): 1.97 µM
- TGI (SF-539 CNS): 4.23 µM
- GI50 (SK-MEL-5 melanoma): 4.72 µM
- TGI (SK-MEL-5 melanoma): > 100 µM
- GI50 (SF-268 CNS): 2.38 µM
- TGI (SF-268 CNS): > 25.7 µM
- GI50 (MDA-MB-435 melanoma): 25.5 µM
- TGI (MDA-MB-435 melanoma): > 100 µM
- GI50 (HS 578T breast): 1.86 µM
- TGI (HS 578T breast): 4.89 µM
- GI50 (MDA-MB-468 breast): 2.01 µM
- TGI (MDA-MB-468 breast): 6.18 µM
- GI50 (SR leukemia): 0.0248 µM
- TGI (SR leukemia): 0.0545 µM
- GI50 (HCT-116 colon): 2.82 µM
- TGI (HCT-116 colon): > 77 µM
- GI50 (HT29 colon): 1.11 µM
- TGI (HT29 colon): > 100 µM
- GI50 (EKVX NSCLC): 1.46 µM
- TGI (EKVX NSCLC): 3.48 µM
- GI50 (RXF 393 renal): 2.09 µM
- TGI (RXF 393 renal): 4.52 µM
- GI50 (NCI-H460 NSCLC): 4.35 µM
- TGI (NCI-H460 NSCLC): > 100 µM
- GI50 (KM12 colon): 3.74 µM
- TGI (KM12 colon): > 100 µM
- GI50 (HOP-92 NSCLC): 1.17 µM
- TGI (HOP-92 NSCLC): 3 µM
